Literature values as cited in US11938184B2, “Compositions and methods for treating Crohn's Disease and related conditions and infections” (priority 2012, dated 2024).

System: Crohn's disease fistulae

Substance: infliximab
- response in fistulae (ACCENT 2 trial, after 14 weeks): 60%
- fistulae maintaining closure (ACCENT 2 trial, at 1 year): 36%
- healing of perianal fistulae (infliximab alone): 46-78%
- healing of recto-vaginal fistulae (infliximab alone): 14-30%
- fistulae initially healed (initial phase II and subsequent phase III trials, 296 patients): 56-68%
- median duration of fistula closure (normally requiring 3 doses of infliximab): approximately 3 months
